Data as given in patent publication US11332459B2 (TEIJIN PHARMA LIMITED, priority 2017, dated 2022).
Where a name gives a salt, the structure may show the parent alone.

Biological target: T1, human TRPC6 (Homo sapiens, UniProt Q9Y210)
T1 construct: expressed in transfected cells
T1 sequence (Q9Y210 1-931): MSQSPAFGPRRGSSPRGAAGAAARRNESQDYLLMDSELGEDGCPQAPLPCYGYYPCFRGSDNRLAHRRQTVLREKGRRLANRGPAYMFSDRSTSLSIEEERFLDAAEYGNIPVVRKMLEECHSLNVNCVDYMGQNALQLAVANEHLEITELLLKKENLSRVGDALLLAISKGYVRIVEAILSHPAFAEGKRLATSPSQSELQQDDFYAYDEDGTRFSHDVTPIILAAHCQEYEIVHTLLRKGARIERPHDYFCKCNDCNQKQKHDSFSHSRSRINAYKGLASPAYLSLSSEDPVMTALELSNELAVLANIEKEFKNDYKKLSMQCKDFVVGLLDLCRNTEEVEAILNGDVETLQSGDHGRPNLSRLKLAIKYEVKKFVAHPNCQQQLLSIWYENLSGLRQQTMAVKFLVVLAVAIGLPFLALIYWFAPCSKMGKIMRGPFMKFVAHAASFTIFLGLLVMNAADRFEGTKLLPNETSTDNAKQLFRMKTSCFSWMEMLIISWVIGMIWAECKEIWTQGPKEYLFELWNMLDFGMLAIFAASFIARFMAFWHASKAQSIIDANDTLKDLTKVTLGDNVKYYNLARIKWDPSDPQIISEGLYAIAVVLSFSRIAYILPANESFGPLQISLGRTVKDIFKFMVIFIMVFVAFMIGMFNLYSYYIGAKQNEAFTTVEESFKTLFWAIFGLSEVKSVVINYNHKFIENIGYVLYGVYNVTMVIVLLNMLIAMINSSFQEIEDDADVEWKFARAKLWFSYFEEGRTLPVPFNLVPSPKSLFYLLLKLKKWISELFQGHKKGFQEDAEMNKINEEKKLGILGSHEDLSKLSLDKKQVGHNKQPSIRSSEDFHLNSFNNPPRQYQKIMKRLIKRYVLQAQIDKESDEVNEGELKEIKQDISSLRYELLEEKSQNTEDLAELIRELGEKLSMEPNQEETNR
Assay: TRPC6 calcium flux assay (FLIPR, OAG-stimulated calcium influx)
Assay type: cell-based
Details: HEK293 cells stably transfected with human TRPC6, read-out: hTRPC6 Potency
Procedure, shortened: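 IC50 derived by plotting background-corrected peak fluorescence (180 s window, normalized to OAG-triggered signal vs buffer) against dose. Stable human TRPC6 HEK293 line was dye-loaded, exposed to compound 25 min, then challenged with 50 uM final OAG in 2 mM Ca2+ HEPES buffer pH 7.2, 0.5% DMSO.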

IC50 | SMILES
131 nM | COc1cc(F)cc2nc(N3CC[C@@H](F)[C@H](N)C3)n(CC(=O)N(C)CC(F)(F)F)c12 [Example 509, 2-(2-((3R,4R)-3-amino-4-fluoropiperidin-1-yl)-5-fluoro-7-methoxy-1H-benzo[d]imidazol-1-yl)-N-methyl-N-(2,2,2-trifluoroethyl)acetamide]
12.8 nM | N[C@@H]1CN(c2nc3c(F)cc(F)cc3n2Cc2nnc(C(F)F)s2)CC[C@H]1F [Example 557, (3R,4R)-1-(1-((5-(difluoromethyl)-1,3,4-thiadiazol-2-yl)methyl)-4,6-difluoro-1H-benzo[d]imidazol-2-yl)-4-fluoropiperidin-3-amine]
> 3750 nM | CS(=O)(=O)N1CCN(C(=O)Cn2c(N3CC[C@@H](F)[C@H](N)C3)nc3cc(F)c(F)cc32)CC1 [Example 649, 2-(2-((3R,4R)-3-amino-4-fluoropiperidin-1-yl)-5,6-difluoro-1H-benzo[d]imidazol-1-yl)-1-(4-(methylsulfonyl)piperazin-1-yl)ethanone]
0.377 nM | N#Cc1ccc(Cn2c(N3CC[C@@H](F)[C@H](N)C3)nc3ccc(C(F)(F)F)cc32)nc1 [Example 14, 6-((2-((3R,4R)-3-amino-4-fluoropiperidin-1-yl)-6-(trifluoromethyl)-1H-benzo[d]imidazol-1-yl)methyl)nicotinonitrile]
> 3750 nM | CN(C)C(=O)C1CCCN(C(=O)Cn2c(N3CC[C@@H](F)[C@H](N)C3)nc3cc(F)c(F)cc32)C1 (stereo partly drawn) [Example 657, 1-(2-(2-((3R,4R)-3-amino-4-fluoropiperidin-1-yl)-5,6-difluoro-1H-benzo[d]imidazol-1-yl)acetyl)-N,N-dimethylpiperidine-3-carboxamide]
1.52 nM | N#Cc1ccc(Cn2c(N3CC[C@@H](F)[C@H](N)C3)nc3ccc(C#N)cc32)nc1 [Example 53, 2-((3R,4R)-3-amino-4-fluoropiperidin-1-yl)-1-((5-cyanopyridin-2-yl)methyl)-1H-benzo[d]imidazole-6-carbonitrile]
69.1 nM | N#Cc1ccc(Cn2c(N3CCC[C@H](N)C3)nc3ccccc32)cn1 [Example 210, (S)-5-((2-(3-aminopiperidin-1-yl)-1H-benzo[d]imidazol-1-yl)methyl)picolinonitrile]
19.4 nM | CN[C@H]1CCCN(c2nc3ccccc3n2[C@@H](C)c2ccc(C#N)cn2)C1 [Example 256, 6-((1S)-1-(2-((3S)-3-(methylamino)-1-piperidinyl)-1H-benzimidazol-1-yl)ethyl)-3-pyridinecarbonitrile]
0.319 nM | N#Cc1cnc(Cn2c(N3CC[C@@H](F)[C@H](N)C3)nc3ccc(F)cc32)nc1 [Example 442, 2-((2-((3R,4R)-3-amino-4-fluoropiperidin-1-yl)-6-fluoro-1H-benzo[d]imidazol-1-yl)methyl)pyrimidine-5-carbonitrile]
> 3750 nM | N[C@@H]1CN(c2nc3ccc(C(F)(F)F)cc3n2CC(=O)N2CCC2)CC[C@@H]1F [Example 308, 2-(2-((3R,4S)-3-amino-4-fluoropiperidin-1-yl)-6-(trifluoromethyl)-1H-benzo[d]imidazol-1-yl)-1-(azetidin-1-yl)ethan-1-one]
3410 nM | N[C@@H]1CCCN(c2nc3ccccc3n2Cc2ccccc2Cl)C1 [Example 374, (R)-1-(1-(2-chlorobenzyl)-1H-benzo[d]imidazol-2-yl)piperidin-3-amine]
> 3750 nM | N#Cc1ccc(Cn2c(N3CCC[C@]4(CCCCN4)C3)nc3ccccc32)nc1 [Example 129, 6-((2-((6R)-1,8-diazaspiro[5.5]undecan-8-yl)-1H-benzimidazol-1-yl)methyl)-3-pyridinecarbonitrile]
5.07 nM | N[C@@H]1CN(c2nc3cc(F)c(F)cc3n2[C@@H]2CCN(c3ccc(Cl)cc3)C2=O)CC[C@H]1F [Example 248, (R)-3-(2-((3R,4R)-3-amino-4-fluoropiperidin-1-yl)-5,6-difluoro-1H-benzo[d]imidazol-1-yl)-1-(4-chlorophenyl)pyrrolidin-2-one]
6.47 nM | N#Cc1ccc2nc(N3CC[C@@H](F)[C@H](N)C3)n(Cc3ncc(F)cn3)c2c1 [Example 196, 2-((3R,4R)-3-amino-4-fluoropiperidin-1-yl)-1-((5-fluoropyrimidin-2-yl)methyl)-1H-benzo[d]imidazole-6-carbonitrile]
562 nM | N[C@@H]1CN(c2nc3cc(Cl)ccc3n2CC(=O)N2CCC2)CC[C@H]1F [Example 286, 2-(2-((3R,4R)-3-amino-4-fluoro-1-piperidinyl)-5-chloro-1H-benzimidazol-1-yl)-1-(1-azetidinyl)ethanone]
0.447 nM | COc1ccc2nc(N3CCC(F)(F)[C@H](N)C3)n(Cc3ccc(C#N)cc3)c2c1 [Example 406, (R)-4-((2-(3-amino-4,4-difluoropiperidin-1-yl)-6-methoxy-1H-benzo[d]imidazol-1-yl)methyl)benzonitrile]
> 3750 nM | C[C@@H](c1ccc(Cl)cc1Cl)n1c(N2CC[C@@H](F)[C@H](N)C2)nc2cc(F)c(F)cc21 [Example 323, (3R,4R)-1-(1-((1S)-1-(2,4-dichlorophenyl)ethyl)-5,6-difluoro-1H-benzimidazol-2-yl)-4-fluoro-3-piperidinamine]
0.32 nM | N[C@@H]1CN(c2nc3cc(F)c(F)cc3n2Cc2ccc(F)cn2)CC[C@H]1F [Example 228, (3R,4R)-1-(5,6-difluoro-1-((5-fluoropyridin-2-yl)methyl)-1H-benzo[d]imidazol-2-yl)-4-fluoropiperidin-3-amine hydrochloride]
1730 nM | CN(C)C(=O)Cn1c(N2CC[C@@H](F)[C@H](N)C2)nc2cc(C(F)(F)F)ccc21 [Example 592, 2-(2-((3R,4R)-3-amino-4-fluoropiperidin-1-yl)-5-(trifluoromethyl)-1H-benzo[d]imidazol-1-yl)-N,N-dimethylacetamide]
765 nM | N[C@@H]1CN(c2nc3cc(F)ccc3n2Cc2nnc(C(F)F)s2)CC[C@H]1F [Example 587, (3R,4R)-1-(1-((5-(difluoromethyl)-1,3,4-thiadiazol-2-yl)methyl)-5-fluoro-1H-benzo[d]imidazol-2-yl)-4-fluoropiperidin-3-amine]
1010 nM | Cc1nc(C)c(Cn2c(N3CC[C@@H](F)[C@H](N)C3)nc3ccc(F)cc32)s1 [Example 589, (3R,4R)-1-(1-((2,4-dimethylthiazol-5-yl)methyl)-6-fluoro-1H-benzo[d]imidazol-2-yl)-4-fluoropiperidin-3-amine]
280 nM | N[C@@H]1CN(c2nc3cc(C(F)(F)F)ccc3n2CC(=O)N2CCC2)CC[C@@H]1F [Example 309, 2-(2-((3R,4S)-3-amino-4-fluoropiperidin-1-yl)-5-(trifluoromethyl)-1H-benzo[d]imidazol-1-yl)-1-(azetidin-1-yl)ethan-1-one]
0.471 nM | N#Cc1cnc(Cn2c(N3CC[C@@H](F)[C@H](N)C3)nc3cc(F)ccc32)nc1 [Example 443, 2-((2-((3R,4R)-3-amino-4-fluoropiperidin-1-yl)-5-fluoro-1H-benzo[d]imidazol-1-yl)methyl)pyrimidine-5-carbonitrile]
2310 nM | N[C@@H]1CN(c2nc3cc(F)c(F)cc3n2CC(=O)N2CCn3ncnc3C2)CC[C@H]1F [Example 646, 2-(2-((3R,4R)-3-amino-4-fluoropiperidin-1-yl)-5,6-difluoro-1H-benzo[d]imidazol-1-yl)-1-(5,6-dihydro-[1,2,4]triazolo[1,5-a]pyrazin-7(8H)-yl)ethanone]
1.99 nM | N#Cc1ccc(Cn2c(N3CCC[C@H](N)C3)nc3c(Cl)cccc32)nc1 [Example 3, (S)-6-((2-(3-aminopiperidin-1-yl)-4-chloro-1H-benzo[d]imidazol-1-yl)methyl)nicotinonitrile]
20.8 nM | CN(CC(F)(F)F)C(=O)Cn1c(N2CC[C@@H](F)[C@H](N)C2)nc2ccc(F)cc21 [Example 445, 2-(2-((3R,4R)-3-amino-4-fluoropiperidin-1-yl)-6-fluoro-1H-benzo[d]imidazol-1-yl)-N-methyl-N-(2,2,2-trifluoroethyl)acetamide]
4.92 nM | N#Cc1ccc2c(c1)nc(N1CC[C@H](F)[C@H](N)C1)n2Cc1ncc(Cl)cn1 [Example 204, 2-((3R,4S)-3-amino-4-fluoropiperidin-1-yl)-1-((5-chloropyrimidin-2-yl)methyl)-1H-benzo[d]imidazole-5-carbonitrile]
150 nM | CCNC(=O)Cn1c(N2CC[C@@H](F)[C@H](N)C2)nc2cc(F)c(F)cc21 [Example 282, 2-(2-((3R,4R)-3-amino-4-fluoro-1-piperidinyl)-5,6-difluoro-1H-benzimidazol-1-yl)-N-ethylacetamide]
